Experimental data from patent US20140094424A1, “MICROBICIDAL COMPOSITIONS AND METHODS OF PRODUCTION USE THEREOF” (priority 2011, published 2014).

What was measured:
Test in all cases: MBC (minimum bactericidal concentration) test in Wash NEXT reagent
Assay type in all cases: cell-based
[1] = tested on: Pseudomonas aeruginosa (L)
[2] = tested on: Pseudomonas fluorescens (D)
[3] = tested on: Pseudomonas aeruginosa (AY)

Measured: MBC test growth score

gentamicin
−: [1]; 50% preservative, 72 hour | [1]; 60% preservative, 72 hour | [1]; 70% preservative, 72 hour | [1]; 80% preservative, 72 hour | [1]; 90% preservative, 48 hour | [1]; 90% preservative, 72 hour | [1]; 100% preservative, 48 hour | [1]; 100% preservative, 72 hour | [2]; 30% preservative, 72 hour | [2]; 40% preservative, 72 hour | [2]; 50% preservative, 72 hour | [2]; 60% preservative, 72 hour | [2]; 70% preservative, 48 hour | [2]; 70% preservative, 72 hour | [2]; 80% preservative, 48 hour | [2]; 80% preservative, 72 hour | [2]; 90% preservative, 48 hour | [2]; 90% preservative, 72 hour | [2]; 100% preservative, 24 hour | [2]; 100% preservative, 48 hour | [2]; 100% preservative, 72 hour | [3]; 10% preservative, 24 hour | [3]; 10% preservative, 48 hour | [3]; 10% preservative, 72 hour | [3]; 20% preservative, 24 hour | [3]; 20% preservative, 48 hour | [3]; 20% preservative, 72 hour | [3]; 30% preservative, 8 hour | [3]; 30% preservative, 24 hour | [3]; 30% preservative, 48 hour | [3]; 30% preservative, 72 hour | [3]; 40% preservative, 8 hour | [3]; 40% preservative, 24 hour | [3]; 40% preservative, 48 hour | [3]; 40% preservative, 72 hour | [3]; 50% preservative, 8 hour | [3]; 50% preservative, 24 hour | [3]; 50% preservative, 48 hour | [3]; 50% preservative, 72 hour | [3]; 60% preservative, 8 hour | [3]; 60% preservative, 24 hour | [3]; 60% preservative, 48 hour | [3]; 60% preservative, 72 hour | [3]; 70% preservative, 8 hour | [3]; 70% preservative, 24 hour | [3]; 70% preservative, 48 hour | [3]; 70% preservative, 72 hour | [3]; 80% preservative, 8 hour | [3]; 80% preservative, 24 hour | [3]; 80% preservative, 48 hour | [3]; 80% preservative, 72 hour | [3]; 90% preservative, 8 hour | [3]; 90% preservative, 24 hour | [3]; 90% preservative, 48 hour | [3]; 90% preservative, 72 hour | [3]; 100% preservative, 8 hour | [3]; 100% preservative, 24 hour | [3]; 100% preservative, 48 hour | [3]; 100% preservative, 72 hour
+/−: [1]; 10% preservative, 48 hour | [1]; 20% preservative, 48 hour | [1]; 30% preservative, 24 hour | [1]; 30% preservative, 48 hour | [1]; 40% preservative, 24 hour | [1]; 40% preservative, 48 hour | [1]; 50% preservative, 24 hour | [1]; 50% preservative, 48 hour | [1]; 60% preservative, 8 hour | [1]; 60% preservative, 24 hour | [1]; 60% preservative, 48 hour | [1]; 70% preservative, 8 hour | [1]; 70% preservative, 24 hour | [1]; 70% preservative, 48 hour | [1]; 80% preservative, 8 hour | [1]; 80% preservative, 24 hour | [1]; 80% preservative, 48 hour | [1]; 90% preservative, 8 hour | [1]; 90% preservative, 24 hour | [1]; 100% preservative, 8 hour | [1]; 100% preservative, 24 hour | [2]; 10% preservative, 48 hour | [2]; 20% preservative, 48 hour | [2]; 30% preservative, 24 hour | [2]; 30% preservative, 48 hour | [2]; 40% preservative, 24 hour | [2]; 40% preservative, 48 hour | [2]; 50% preservative, 8 hour | [2]; 50% preservative, 48 hour | [2]; 60% preservative, 8 hour | [2]; 60% preservative, 48 hour | [2]; 70% preservative, 8 hour | [2]; 80% preservative, 8 hour | [2]; 90% preservative, 8 hour | [2]; 100% preservative, 8 hour | [3]; 10% preservative, 8 hour | [3]; 20% preservative, 8 hour
8: [1]; 10% preservative, 72 hour
5: [2]; 70% preservative, 24 hour | [2]; 80% preservative, 24 hour
1: [1]; 40% preservative, 72 hour | [2]; 90% preservative, 24 hour
15: [2]; 10% preservative, 72 hour
12: [2]; 20% preservative, 72 hour
14: [2]; 50% preservative, 24 hour
13: [2]; 60% preservative, 24 hour
2: [1]; 30% preservative, 72 hour
4: [1]; 20% preservative, 72 hour
+: [1]; 10% preservative, 8 hour | [1]; 10% preservative, 24 hour | [1]; 20% preservative, 8 hour | [1]; 20% preservative, 24 hour | [1]; 30% preservative, 8 hour | [1]; 40% preservative, 8 hour | [1]; 50% preservative, 8 hour | [2]; 10% preservative, 8 hour | [2]; 10% preservative, 24 hour | [2]; 20% preservative, 8 hour | [2]; 20% preservative, 24 hour | [2]; 30% preservative, 8 hour | [2]; 40% preservative, 8 hour
